The values that follow come from patent US5872104A, “Combinations and methods for reducing antimicrobial resistance” (Oridigm Corporation, priority 1994, dated 1999).

In data set [1] the test system is tumor-derived methionine adenosyltransferases. The note with it: cited from earlier work.
Data set [2] has as its system vaccinia virion mRNA(guanine-7)methyltransferase. The conditions noted are these: 100 μM; cited from earlier work.
The test system of data set [3] is RNA methyltransferase from Streptomyces antibioticus. The conditions noted are these: 100 μM; cited from earlier work.
A further data set concerns the target SAH hydrolase. The conditions noted are these: cited from earlier work; for pKi: De Clercq & Cools (1985).
The test system of data set [4] is vesicular stomatitis virus. The conditions noted are these: primary rabbit kidney cells; cited from earlier work.
In a further data set the test system is human retrovirus. The note with it: cited from earlier work.
The test system of the next data set is SAM synthetase. The note with it: cited from earlier work.
The next data set has as its system tRNA methylases. The conditions noted are these: cited from earlier work.
A further data set deals with adenosine deaminase. The conditions noted are these: cited from earlier work.
For data set [5], the system named is S. aureus 27660 (erythromycin resistant). The format is cell-based. The conditions noted are these: in combination with erythromycin.
For data set [6] the following is noted: mice, cited from earlier work.
For another data set, the system named is GSH. The note with it: cited from earlier work; for depletion of GSH: 0.2 mg/kg; for reduction of GSH levels: 0.2 mmol/kg (S) and 0.4 mmol/kg (S,R), liver, kidney and pancreas.
For a further data set, the system named is methyl transfer from SAM. The note with it: cited from earlier work.
For the next data set, the system named is L1210 cells. The conditions noted are these: absence of polyamine depletion; cited from earlier work.
A further data set deals with SAHH hydrolase. The conditions noted are these: cited from earlier work.

pIC50, pKi: −log10 of the molar value. Where two headings read alike, the source gives them in different places. A value given as a limit tells only on which side of the number the result lay.

Take `CC=CC[C@H](N)C(=O)O` [L-2-amino-4-hexanoic acid]: the inhibition entry in data set [1] is given as “effective inhibitors”. Regarding `CC[Se]CCC(N)C(=O)O` (racemic) [seleno-DL-ethionine], the inhibition entry in data set [1] is listed as “effective inhibitors”.

On to `Nc1ncnc2c1ncn2[C@@H]1O[C@H](CS(=O)(=O)CC[C@H](N)C(=O)O)[C@@H](O)[C@H]1O` [S-adenosyl-L-homocysteine sulfone], for which the inhibition in data set [2] is listed as 40%. Regarding `CSCSC[C@H]1O[C@@H](n2cnc3c(N)ncnc32)[C@H](O)[C@@H]1O` [5'-S-methylthiomethyladenosine], in data set [3], the inhibition is recorded as 65%. Take `Nc1nccc2c1ncn2[C@@H]1O[C@H](CSCC[C@H](N)C(=O)O)[C@@H](O)[C@H]1O` [S-(3-deazaadenosyl)-L-homocysteine]: in data set [2], the inhibition is recorded as 84%.

Take `CCSCC[C@H](N)C(=O)O` [L-ethionine]: the inhibition entry in data set [1] was “effective inhibitors”. As for `Nc1nccc2c1ncn2[C@@H]1C[C@H](CO)[C@@H](O)[C@H]1O` [carbocyclic 3-deazaadenosine, carbocyclic-3-deazaadenosine], the pKi on SAH hydrolase is 7.89. For the same compound, in data set [4], the “minimum inhibitor concentration (50% reduction of cytopathogenicity)” value was 0.2 µg/mL. Besides, the effective inhibitory concentration in the data set with human retrovirus was around 1.4 µg/mL.

Regarding `NC1(C(=O)O)CC2CCC2C1` (centres unmarked) [3-aminobicyclo[3.2.0]heptane-3-carboxylic acid], in the data set on SAM synthetase, the SAM synthetase inhibition result was “effective inhibitors”. As for `Nc1ncnc2c1ncn2[C@@H]1O[C@H](C[S+]([O-])CC[C@H](N)C(=O)O)[C@@H](O)[C@H]1O` (stereo partly drawn) [S-adenosyl-L-homocysteine sulfoxide], the inhibition in data set [2] was 47%. Turning to `Nc1ncnc2nc[nH]c12.O=S(=O)(O)O` [adenine sulfate], the “inhibition of tRNA methylases” value with tRNA methylases is on record as “gave inhibition that would be acceptable”. In the case of `Nc1ncnc2c1ncn2C1OC(CC2CCC(N)C(=O)N2)C(O)C1O` (centres unmarked) [cyclosinefungin], the inhibition in [3] was 50%. On to 6-mercaptoadenine, for which the “inhibition of tRNA methylases” value with tRNA methylases is “gave inhibition that would be acceptable”. For the compound `OCC1NC=Nc2c1ncn2[C@@H]1O[C@H](CO)[C@@H](O)[C@H]1O` (some centres unmarked) [1,6-dihydro-6-hydroxy-methylpurine nucleoside], in the data set with adenosine deaminase, the ADA inhibition entry is “inhibitors of ADA”. Take `Nc1ncnc2c1ncn2[C@@H]1O[C@H](CO)[C@@H](O)[C@@H]1O` [Ara-A, 9-β-arabinofuranosyladenine]: the “enhanced killing with erythromycin” value in data set [5] is “enhanced the killing”. Moreover, in the data set on SAH hydrolase, the SAH hydrolase inhibition entry was “suicide inactivators of SAH hydrolase”. Further, the “activity relative to 2'-deoxyadenosine” value in the data set with SAH hydrolase (suicide inactivation of SAH hydrolase) is listed as “twice as active as 2'-deoxyadenosine”. Further, the values for the LD50 in data set [6] (i.p.) and in [6] (orally) were 4,677 mg/kg and 7,950 mg/kg, respectively. For `Nc1ncnc2nc[nH]c12.O=P(O)(O)O` [adenine phosphate], the “inhibition of tRNA methylases” value in the data set on tRNA methylases is recorded as “gave inhibition that would be acceptable”. In the case of `Nc1ncnc2c1ncn2[C@@H]1C[C@H](CSCC[C@H](N)C(=O)O)[C@@H](O)[C@H]1O` [S-aristeromycinyl-L-homocysteine], the inhibition in data set [2] is given as 66%. For `CCCC[S@@](=N)(=O)CC[C@H](N)C(=O)O` [L-buthionine-(R)-sulfoximine], the “depletion of GSH” value with GSH (kidney) is recorded as “modest depletion in the kidney”; with GSH (liver or pancreas) it was “did not show any significant depletion of GSH”. Take `C[S+](CCCN)C[C@H]1O[C@@H](n2cnc3c(N)ncnc32)[C@H](O)[C@@H]1O` (some centres unmarked) [S-adenosyl-(5')-3-methylthio-propylamine]: in the data set on methyl transfer from SAM, the inhibition entry is reported as “effective inhibitors”. Turning to `C/C(Cl)=C/C[C@H](N)C(=O)O` [(Z)-L-2-amino-5-chloro-trans-4-hexanoic acid], the inhibition entry in [1] was “effective inhibitors”. `CC(C)COC(=O)C(O)Cn1cnc2c(N)ncnc21` (racemic) [(RS)-AHPA isobutyl ester]: the “minimum inhibitor concentration (50% reduction of cytopathogenicity)” value in data set [4] was 2 µg/mL. Besides, the effective inhibitory concentration with human retrovirus is around 1.2 µg/mL. In addition, the activity index in the data set on human retrovirus (in vitro cytotoxicity vs activity) is given as 80.

Turning to `CN(C)c1ncnc2[nH]cnc12` [6-dimethyladenine], the “inhibition of tRNA methylases” value with tRNA methylases is recorded as “possible exceptions”. Regarding `Nc1ncnc2c1ncn2C[C@H](O)CO` [(S)-DHPA, 9(S)-(2,3-dihydroxypropyl)adenine], the pKi at SAH hydrolase was 5.85. In addition, in [4], the “minimum inhibitor concentration (50% reduction of cytopathogenicity)” value was 20 µg/mL. For the same compound, the effective inhibitory concentration entry in the data set with human retrovirus was “about 60 μg/ml”. Regarding `CCCC[S@](=N)(=O)CC[C@H](N)C(=O)O` [L-buthionine-(S)-sulfoximine], the “reduction of GSH levels” value in the data set with GSH was “effective in reducing GSH levels”. Consider `C[S+](CC[C@H](N)C(=O)O)C[C@H]1O[C@@H](n2cnc3c(=O)[nH]cnc32)[C@H](O)[C@@H]1O` (stereo partly drawn) [S-inosyl-L-methionine], for which the inhibition entry in the data set with methyl transfer from SAM was “effective inhibitors”. For the compound `CNc1ncnc2[nH]cnc12` [6-methyladenine], the “inhibition of tRNA methylases” value in the data set with tRNA methylases is on record as “gave inhibition that would be acceptable”. Take `N[C@]1(C(=O)O)C[C@H]2CC[C@@H]1C2` [(1R,2R,4S) isomer of 2-aminonorbornane-2-carboxylic acid, 2-aminonorbornane-2-carboxylic acid]: in the data set on SAM synthetase, the SAM synthetase inhibition entry is “effective inhibitors”.

On to `Nc1ncnc2c1ncn2CC(O)C(=O)O` (racemic) [(RS)-AHPA, (R,S)-3-adenine-9-yl-2-hydroxypropanocic acid], for which the pKi on SAH hydrolase was 7.14.

`NC1(C(=O)O)CCC1` [1-aminocyclobutanecarboxylic acid]: the inhibition entry in data set [1] was “effective inhibitors”. For the compound `CC1(C)N=C(N)N=C(N)N1c1ccc(CCCCc2ccc(S(=O)(=O)F)cc2Cl)c(Cl)c1` [NSC 127755], the “s.c. toxicity (LD100)” value in data set [6] (s.c.) is reported as at least 156 mg/kg. Take `Nc1nc(F)nc2c1ncn2[C@@H]1O[C@H](CSCCC(N)C(=O)O)[C@@H](O)[C@H]1O` (some centres unmarked) [2-FSAH, 2-fluoro-S-adenosylhomocysteine]: in the data set with SAH hydrolase, the SAH hydrolase inhibition entry is “effective inhibitor of SAHH”. Regarding 6-methoxyadenine, the “inhibition of tRNA methylases” value in the data set with tRNA methylases is “possible exceptions”. Consider `NC1(C(=O)O)CCCCC1` [1-aminocyclohexanecarboxylic acid], for which the inhibition entry in [1] is listed as “effective inhibitors”. Take `C[Se]CC[C@H](N)C(=O)O` [selenomethionine]: in the data set on L1210 cells, the negative logarithm of the IC50 (pIC50) was 3.89. As for `NC(C(=O)O)C1CCCC1` (centres unmarked) [cyclopentaneglycine], in the data set on SAM synthetase, the SAM synthetase inhibition entry is recorded as “effective inhibitors”.

Regarding `NC1(C(=O)O)CC2CC1C1CCCC21` [(1R,2R,4S) isomer of 2-amino-5,6-exo-trimethylenenorbornane-2-carboxylic acid, 2-amino-5,6-exo-trimethylenenorbornane-2-carboxylic acid], the SAM synthetase inhibition entry in the data set with SAM synthetase is on record as “effective inhibitors”.

`Nc1nccc2c1ncn2[C@@H]1C=C[C@@H](O)[C@H]1O` [c^3 -DHCeA, dihydroxycyclopentenyl-3-deazaadenine]: in the data set with SAHH hydrolase, the “antiviral activity and cytotoxicity vs first generation” value was “retained antiviral activity and considerably lower cytotoxicity than their parent first generation inhibitors”. Take `CS/C=C\[C@H](N)C(=O)O` (stereo in doubt) [L-cis-AMTB, L-2-amino-4-methylthio-cis-but-3-enoic acid]: the “inhibitory potency relative to L-cis-AMB” value in the data set with SAM synthetase is listed as “slightly less inhibitory than L-cis-AMB”. For `Nc1ncnc2c1ncn2[C@H]1C[C@H](O)[C@@H](CO)O1` [2'-deoxyadenosine], the “enhanced killing with erythromycin” value in [5] was “enhanced the killing”. Further, in the data set on SAH hydrolase, the SAH hydrolase inhibition entry is given as “suicide inactivators of SAH hydrolase”.

Turning to `CCCCS(=N)(=O)CC[C@H](N)C(=O)O` (stereo partly drawn) [L-buthionine-(S,R)-sulfoximine], the “reduction of GSH levels” value in the data set on GSH is on record as “effective in reducing GSH levels”. `Nc1nccc2c1ncn2[C@@H]1CC[C@@H](O)[C@H]1O` [c^3 -DHCaA, dihydroxycyclopentanyl-3-deazaadenine]: in the data set on SAHH hydrolase, the “antiviral activity and cytotoxicity vs first generation” value is “retained antiviral activity and considerably lower cytotoxicity than their parent first generation inhibitors”.

With `Nc1c2nc[nH]c2nc[n+]1[O-]` [adenine-N^1 -oxide], the “inhibition of tRNA methylases” value in the data set with tRNA methylases is on record as “gave inhibition that would be acceptable”. Take `NC1(C(=O)O)CC2CC1C2` (single isomer, unassigned; (+)) [(+)-2-aminobicyclo[2.1.1]hexane-2-carboxylic acid]: in the data set on SAM synthetase, the SAM synthetase inhibition entry is recorded as “most effective”. The inhibition entry in [1] is reported as “most effective”. For the same compound, in the data set on L1210 cells, the pIC50 is 2.30. For the compound `Nc1nc(N)c2ncn([C@@H]3C[C@H](O)[C@@H](O)[C@H]3O)c2n1` (relative stereo) [2,6-diamino-analogue], in the data set with SAH hydrolase, the SAH hydrolase inhibition entry is reported as “inhibitors of SAHH”. As for `Nc1ncnc2c1ncn2[C@@H]1CC[C@@H](O)[C@H]1O` [DHCaA, dihydroxycyclopentanyladenine], the “antiviral activity and cytotoxicity vs first generation” value with SAHH hydrolase is “retained antiviral activity and considerably lower cytotoxicity than their parent first generation inhibitors”.

Take `Nc1ncnc2c1ncn2[C@@H]1C=C[C@@H](O)[C@H]1O` [DHCeA, dihydroxycyclopentenyladenine]: in the data set on SAHH hydrolase, the “antiviral activity and cytotoxicity vs first generation” value was “retained antiviral activity and considerably lower cytotoxicity than their parent first generation inhibitors”.

As usually defined, the inhibition is how much of the control response was suppressed. The term pKi denotes the Ki on a negative log10 scale, so that one unit is a factor of ten. The term pIC50 denotes the negative decadic logarithm of the IC50, by convention in mol/L.
